Measurements as given in patent US10597388B2, “Pyridazinone herbicides” (FMC CORPORATION, priority 2014, dated 2020).

Legend:
Type in all cases: in vivo
[1] = system: barnyardgrass (Echinochloa crus-galli); test: Test A greenhouse herbicide test, pre- and postemergence
Procedure, shortened: (§1)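 Visual injury ratings, 0 (no effect) to 100 (complete control), versus untreated plants after roughly 10 d in a greenhouse. Compounds, formulated in a surfactant-containing non-phytotoxic solvent, were sprayed on loam–sand soil after sowing (pre) or on one- to two-leaf plants 2–10 cm tall (post).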

[2] = system: corn (Zea mays); test: as above; conditions: Postemergence; for Corn plant response rating: 0 to 100 scale, 0 is no effect, 100 is complete control
Procedure, shortened: as §1

[3] = system: foxtail, giant (giant foxtail, Setaria faberii); test: as above
Procedure, shortened: as §1

[4] = system: kochia (Kochia scoparia); test: as above
Procedure, shortened: as §1

[5] = system: pigweed (Amaranthus retroflexus); test: as above
Procedure, shortened: as §1

[6] = system: ragweed (common ragweed, Ambrosia elatior); test: as above
Procedure, shortened: as §1

[7] = system: ryegrass, Italian (Italian ryegrass, Lolium multiflorum); test: as above
Procedure, shortened: as §1

[8] = system: wheat (Triticum aestivum); test: as above; conditions: Postemergence; for Wheat plant response rating: 0 to 100 scale, 0 is no effect, 100 is complete control
Procedure, shortened: as §1

[9] = system: blackgrass (Alopecurus myosuroides); test: Test A greenhouse herbicide test, postemergence; conditions: for Blackgrass plant response rating: 0 to 100 scale, 0 is no effect, 100 is complete control
Procedure, shortened: (§2)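 Seedlings in a loam soil and sand mix received formulated compound postemergence at the one- to two-leaf stage. Greenhouse holding lasts approximately 10 d, then injury is scored visually relative to untreated plants, 0 meaning no effect and 100 complete control.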

[10] = system: galium (catchweed bedstraw, Galium aparine); test: Test A greenhouse herbicide test, postemergence; conditions: for Galium plant response rating: 0 to 100 scale, 0 is no effect, 100 is complete control
Procedure, shortened: as §2

[11] = system: barnyardgrass (Echinochloa crus-galli); test: Test B flooded paddy test; conditions: 250 g ai/ha, Flood; visual rating on scale of 0 to 100 where 0 is no effect and 100 is complete control; 13 to 15 d after treatment
Procedure, shortened: (§3)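 Ratings use a 0-100 visual scale, where 100 is complete control, and compare treated plants with controls after 13 to 15 d of greenhouse growth. Compound went straight into paddy water kept 3 cm over the soil surface, applied to seedlings at the 2-leaf stage.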

[12] = system: ducksalad (Heteranthera limosa); test: Test B flooded paddy test; conditions: 250 g ai/ha, Flood; visual rating on scale of 0 to 100 where 0 is no effect and 100 is complete control; 13 to 15 d after treatment
Procedure, shortened: as §3

[13] = system: rice (Oryza sativa); test: Test B flooded paddy test; conditions: 250 g ai/ha, Flood; visual rating on scale of 0 to 100 where 0 is no effect and 100 is complete control; 13 to 15 d after treatment
Procedure, shortened: as §3

[14] = system: sedge, umbrella (small-flower umbrella sedge, Cyperus difformis); test: Test B flooded paddy test; conditions: 250 g ai/ha, Flood; visual rating on scale of 0 to 100 where 0 is no effect and 100 is complete control; 13 to 15 d after treatment
Procedure, shortened: as §3

[15] = Postemergence, 125 g ai/ha, 0 to 100 scale where 0 is no effect and 100 is complete control
[16] = Postemergence, 500 g ai/ha, 0 to 100 scale, 0 is no effect, 100 is complete control
[17] = Preemergence, 125 g ai/ha, 0 to 100 scale where 0 is no effect and 100 is complete control
[18] = Preemergence, 500 g ai/ha, 0 to 100 scale where 0 is no effect and 100 is complete control
[19] = 125 g ai/ha, 0 to 100 scale where 0 is no effect and 100 is complete control
[20] = Postemergence, 500 g ai/ha, visual rating after approx. 10 d, 0 to 100 scale (0 no effect, 100 complete control)
[21] = 500 g ai/ha, visual rating after approx. 10 d, 0 to 100 scale (0 no effect, 100 complete control)

SMILES	Plant response rating, Barnyardgrass [1, 15]	Barnyardgrass plant response rating [1, 17]	Plant response rating, Barnyardgrass [1, 18]	Plant response rating, Corn [2, 19]	Plant response rating, Foxtail, Giant [3, 15]	Foxtail, Giant plant response rating [3, 17]	Plant response rating, Foxtail, Giant [3, 18]	Plant response rating, Kochia [4, 15]	Kochia plant response rating [4, 17]	Plant response rating, Kochia [4, 18]	Plant response rating, Pigweed [5, 15]	Pigweed plant response rating [5, 17]	Plant response rating, Pigweed [5, 18]	Plant response rating, Ragweed [6, 15]	Ragweed plant response rating [6, 17]	Plant response rating, Ragweed [6, 18]	Plant response rating, Ryegrass, Italian [7, 15]	Ryegrass, Italian plant response rating [7, 17]	Plant response rating, Ryegrass, Italian [7, 18]	Plant response rating, Wheat [8, 19]	further results
CCOc1ccc2cccc(-c3c(O)c(C)nn(C)c3=O)c2c1 [Compound 92]	0	0	0	0	0	0	0	60	0	20	20	0	0	0	0	0	0	0	0	0	Barnyardgrass plant response rating [1, 16]: 0; Corn plant response rating ([2]; 500 g ai/ha): 0; Foxtail, Giant plant response rating [3, 16]: 0; Kochia plant response rating [4, 16]: 70; Pigweed plant response rating [5, 16]: 30; Ragweed plant response rating [6, 16]: 0; Ryegrass, Italian plant response rating [7, 16]: 0; Wheat plant response rating ([8]; 500 g ai/ha): 0; Plant response rating, Blackgrass [9, 19]: 0; Blackgrass plant response rating ([9]; 500 g ai/ha): 20; Plant response rating, Galium [10, 19]: 10; Galium plant response rating ([10]; 500 g ai/ha): 30; Plant response rating, Barnyardgrass [11]: 0; Plant response rating, Ducksalad [12]: 0; Plant response rating, Rice [13]: 0; Plant response rating, Sedge, Umbrella [14]: 40
Cc1nn(C)c(=O)c(-c2cccc3ccc(OC(F)F)cc23)c1O [Compound 93]	0	0	0	0	0	0	0	20	0	30	30	20	90	0	0	20	40	20	40	0	Barnyardgrass plant response rating [1, 16]: 20; Corn plant response rating ([2]; 500 g ai/ha): 30; Foxtail, Giant plant response rating [3, 16]: 10; Kochia plant response rating [4, 16]: 30; Pigweed plant response rating [5, 16]: 60; Ragweed plant response rating [6, 16]: 50; Ryegrass, Italian plant response rating [7, 16]: 90; Wheat plant response rating ([8]; 500 g ai/ha): 20; Plant response rating, Blackgrass [9, 19]: 0; Blackgrass plant response rating ([9]; 500 g ai/ha): 0; Plant response rating, Galium [10, 19]: 70; Galium plant response rating ([10]; 500 g ai/ha): 90; Plant response rating, Barnyardgrass [11]: 0; Plant response rating, Ducksalad [12]: 0; Plant response rating, Rice [13]: 0; Plant response rating, Sedge, Umbrella [14]: 50
Cc1ccc2c(-c3c(O)c(C)nn(C)c3=O)c(C)ccc2c1 [Compound 110]	0	0	20	0	0	10	40	50	0	100	70	90	100	60	30	40	70	20	80	0	Plant response rating, Barnyardgrass [1, 20]: 10; Plant response rating, Corn [2, 21]: 20; Plant response rating, Foxtail, Giant [3, 20]: 10; Plant response rating, Kochia [4, 20]: 70; Plant response rating, Pigweed [5, 20]: 90; Plant response rating, Ragweed [6, 20]: 100; Plant response rating, Ryegrass, Italian [7, 20]: 90; Plant response rating, Wheat [8, 21]: 40; Plant response rating, Blackgrass [9, 19]: 20; Plant response rating, Blackgrass [9, 21]: 60; Plant response rating, Galium [10, 19]: 70; Plant response rating, Galium [10, 21]: 90; Plant response rating, Barnyardgrass [11]: 0; Plant response rating, Ducksalad [12]: 0; Plant response rating, Rice [13]: 0; Plant response rating, Sedge, Umbrella [14]: 0
COC(=O)Oc1c(OC)nn(C)c(=O)c1-c1c(C)sc2ccc(Cl)cc12 [Compound 112]	20	10	20	0	20	50	60	20	20	80	20	90	100	60	40	80	80	90	100	20	Plant response rating, Barnyardgrass [1, 20]: 20; Plant response rating, Corn [2, 21]: 30; Plant response rating, Foxtail, Giant [3, 20]: 50; Plant response rating, Kochia [4, 20]: 30; Plant response rating, Pigweed [5, 20]: 30; Plant response rating, Ragweed [6, 20]: 80; Plant response rating, Ryegrass, Italian [7, 20]: 100; Plant response rating, Wheat [8, 21]: 30; Plant response rating, Blackgrass [9, 19]: 40; Plant response rating, Blackgrass [9, 21]: 80; Plant response rating, Galium [10, 19]: 70; Plant response rating, Galium [10, 21]: 90; Plant response rating, Barnyardgrass [11]: 0; Plant response rating, Ducksalad [12]: 0; Plant response rating, Rice [13]: 0; Plant response rating, Sedge, Umbrella [14]: 0
